Measurements: PMC7658267, “Effects of CYP46A1 Inhibition on Long-Term-Depression in Hippocampal Slices ex vivo and 24S-Hydroxycholesterol Levels in Mice in vivo” (Frontiers in Molecular Neuroscience, 2020)
Where two headings read alike, the source gives them in different places.

Legend:
Assay in all cases: biochemical
Human 5-HT5A = target: T1, Human 5-HT5A (Homo sapiens, UniProt P47898); design: CEREP off-target binding panel, per cent inhibition at 10 uM, n = 2
T1 construct: gene HTR5A

Human 5-HT6 = target: T2, Human 5-HT6 (Homo sapiens, UniProt P50406); design: CEREP off-target binding panel, per cent inhibition at 10 uM, n = 2
T2 construct: gene HTR6
T2 sequence (P50406 whole entry): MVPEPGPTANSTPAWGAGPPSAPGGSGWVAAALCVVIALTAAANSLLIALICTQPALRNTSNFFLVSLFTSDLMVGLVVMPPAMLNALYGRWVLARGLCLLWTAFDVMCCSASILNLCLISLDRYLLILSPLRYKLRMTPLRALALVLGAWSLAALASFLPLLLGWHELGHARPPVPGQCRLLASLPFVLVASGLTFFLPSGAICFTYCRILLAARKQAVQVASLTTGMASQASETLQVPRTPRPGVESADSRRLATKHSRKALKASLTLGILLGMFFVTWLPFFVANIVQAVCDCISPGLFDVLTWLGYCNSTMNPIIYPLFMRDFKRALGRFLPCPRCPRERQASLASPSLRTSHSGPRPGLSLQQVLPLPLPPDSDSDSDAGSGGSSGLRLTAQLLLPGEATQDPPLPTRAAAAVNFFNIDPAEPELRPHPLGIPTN

Human 5-HT7 = target: T3, Human 5-HT7 (Homo sapiens, UniProt P34969); design: CEREP off-target binding panel, per cent inhibition at 10 uM, n = 2
T3 construct: gene HTR7

Human A3 = target: T4, Human A3 (Homo sapiens, UniProt P0DMS8); design: CEREP off-target binding panel, per cent inhibition at 10 uM, n = 2
T4 construct: gene ADORA3
T4 sequence (P0DMS8 whole entry): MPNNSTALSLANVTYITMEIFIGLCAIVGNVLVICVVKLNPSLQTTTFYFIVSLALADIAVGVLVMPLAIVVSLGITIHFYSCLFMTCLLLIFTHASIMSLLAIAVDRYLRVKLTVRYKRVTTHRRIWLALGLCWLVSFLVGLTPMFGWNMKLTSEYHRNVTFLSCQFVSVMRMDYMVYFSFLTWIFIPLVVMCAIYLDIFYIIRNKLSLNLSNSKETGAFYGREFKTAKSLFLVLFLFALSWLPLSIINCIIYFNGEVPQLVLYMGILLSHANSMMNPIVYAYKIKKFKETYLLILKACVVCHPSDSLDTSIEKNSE

Human CB1 = target: T5, Human CB1 (Homo sapiens, UniProt P21554); design: CEREP off-target binding panel, per cent inhibition at 10 uM, n = 2
T5 construct: gene CNR1

Human D2s = target: T6, Human D2s (Homo sapiens, UniProt P14416); design: CEREP off-target binding panel, per cent inhibition at 10 uM, n = 2
T6 construct: gene DRD2; D2s

Human EP4 = target: T7, Human EP4 (Homo sapiens, UniProt P35408); design: CEREP off-target binding panel, per cent inhibition at 10 uM, n = 2
T7 construct: gene PTGER4
T7 sequence (P35408 whole entry): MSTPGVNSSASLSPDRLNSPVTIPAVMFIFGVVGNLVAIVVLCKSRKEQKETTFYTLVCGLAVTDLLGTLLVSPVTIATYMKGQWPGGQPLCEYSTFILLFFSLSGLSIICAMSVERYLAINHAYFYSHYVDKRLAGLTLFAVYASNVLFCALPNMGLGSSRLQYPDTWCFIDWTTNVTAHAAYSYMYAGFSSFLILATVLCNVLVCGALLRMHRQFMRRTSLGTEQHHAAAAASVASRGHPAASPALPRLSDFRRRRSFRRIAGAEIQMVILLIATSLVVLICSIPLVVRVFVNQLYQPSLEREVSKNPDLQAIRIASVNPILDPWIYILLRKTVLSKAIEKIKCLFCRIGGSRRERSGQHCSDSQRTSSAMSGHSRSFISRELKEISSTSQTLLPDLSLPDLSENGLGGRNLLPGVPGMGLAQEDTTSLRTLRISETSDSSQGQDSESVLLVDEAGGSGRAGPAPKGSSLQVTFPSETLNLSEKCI

Human GR = target: T8, Human GR (Homo sapiens, UniProt P04150); design: CEREP off-target binding panel, per cent inhibition at 10 uM, n = 2
T8 construct: gene NR3C1

Human H3 = target: T9, Human H3 (Homo sapiens, UniProt Q9Y5N1); design: CEREP off-target binding panel, per cent inhibition at 10 uM, n = 2
T9 construct: gene HRH3
T9 sequence (Q9Y5N1 whole entry): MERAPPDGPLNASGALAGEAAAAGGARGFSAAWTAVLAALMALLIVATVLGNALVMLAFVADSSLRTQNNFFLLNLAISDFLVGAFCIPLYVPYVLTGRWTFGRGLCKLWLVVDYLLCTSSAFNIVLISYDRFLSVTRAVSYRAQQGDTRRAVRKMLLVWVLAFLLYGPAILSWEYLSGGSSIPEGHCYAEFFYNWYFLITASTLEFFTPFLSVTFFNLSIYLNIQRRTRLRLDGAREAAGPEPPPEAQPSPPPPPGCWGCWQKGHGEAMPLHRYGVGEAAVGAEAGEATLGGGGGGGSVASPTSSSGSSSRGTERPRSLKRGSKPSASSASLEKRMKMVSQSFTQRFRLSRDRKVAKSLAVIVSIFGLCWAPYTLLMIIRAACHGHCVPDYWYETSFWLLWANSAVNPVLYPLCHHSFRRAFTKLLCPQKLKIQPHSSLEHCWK

Human MC4 = target: T10, Human MC4 (Homo sapiens, UniProt P32245); design: CEREP off-target binding panel, per cent inhibition at 10 uM, n = 2
T10 construct: gene MC4R

Human PR = target: T11, Human PR (Homo sapiens, UniProt P06401); design: CEREP off-target binding panel, per cent inhibition at 10 uM, n = 2
T11 construct: gene PGR
T11 sequence (P06401 whole entry): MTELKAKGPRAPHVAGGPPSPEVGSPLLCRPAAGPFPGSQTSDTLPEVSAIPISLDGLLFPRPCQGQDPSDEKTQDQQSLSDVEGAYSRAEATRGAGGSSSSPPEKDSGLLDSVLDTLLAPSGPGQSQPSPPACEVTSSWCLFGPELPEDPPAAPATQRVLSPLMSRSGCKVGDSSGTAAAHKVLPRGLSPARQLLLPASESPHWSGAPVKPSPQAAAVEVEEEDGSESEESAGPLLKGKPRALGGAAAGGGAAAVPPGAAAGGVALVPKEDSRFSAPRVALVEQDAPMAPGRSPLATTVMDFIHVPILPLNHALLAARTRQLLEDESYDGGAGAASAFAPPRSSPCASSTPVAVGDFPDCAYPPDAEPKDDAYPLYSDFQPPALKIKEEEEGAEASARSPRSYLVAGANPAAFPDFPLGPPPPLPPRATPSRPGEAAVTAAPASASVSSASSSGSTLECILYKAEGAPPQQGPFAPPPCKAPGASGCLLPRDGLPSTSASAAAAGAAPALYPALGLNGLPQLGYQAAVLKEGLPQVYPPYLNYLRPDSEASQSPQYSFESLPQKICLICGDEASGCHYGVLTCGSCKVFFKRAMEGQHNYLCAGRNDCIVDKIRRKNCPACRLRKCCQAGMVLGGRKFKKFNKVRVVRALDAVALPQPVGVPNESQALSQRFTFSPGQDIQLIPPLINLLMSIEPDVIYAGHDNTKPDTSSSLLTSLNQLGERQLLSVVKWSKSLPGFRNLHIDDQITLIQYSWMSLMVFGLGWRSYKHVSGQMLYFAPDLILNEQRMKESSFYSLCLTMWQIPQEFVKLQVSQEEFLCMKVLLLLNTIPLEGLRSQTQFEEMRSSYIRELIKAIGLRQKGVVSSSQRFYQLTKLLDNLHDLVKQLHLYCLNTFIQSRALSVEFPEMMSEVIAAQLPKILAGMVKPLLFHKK

Human V1a = target: T12, Human V1a (Homo sapiens, UniProt P37288); design: CEREP off-target binding panel, per cent inhibition at 10 uM, n = 2
T12 construct: gene AVPR1A

Human VPAC1 = target: T13, Human VPAC1 (Homo sapiens, UniProt P32241); design: CEREP off-target binding panel, per cent inhibition at 10 uM, n = 2
T13 construct: gene VIPR1
T13 sequence (P32241 whole entry): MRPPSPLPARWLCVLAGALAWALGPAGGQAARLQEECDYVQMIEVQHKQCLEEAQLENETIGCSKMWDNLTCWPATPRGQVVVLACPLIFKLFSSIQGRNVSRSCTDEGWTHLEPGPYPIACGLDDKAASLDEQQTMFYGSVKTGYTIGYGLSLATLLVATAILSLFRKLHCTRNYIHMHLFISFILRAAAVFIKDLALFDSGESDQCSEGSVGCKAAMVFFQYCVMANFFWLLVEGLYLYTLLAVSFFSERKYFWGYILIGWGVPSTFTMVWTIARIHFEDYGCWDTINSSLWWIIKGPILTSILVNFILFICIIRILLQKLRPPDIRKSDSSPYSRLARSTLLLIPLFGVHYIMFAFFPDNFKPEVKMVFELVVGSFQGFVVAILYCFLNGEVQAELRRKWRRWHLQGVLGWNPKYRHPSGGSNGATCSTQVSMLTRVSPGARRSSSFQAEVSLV

Human Y1 = target: T14, Human Y1 (Homo sapiens, UniProt P25929); design: CEREP off-target binding panel, per cent inhibition at 10 uM, n = 2
T14 construct: gene NPY1R
T14 sequence (P25929 whole entry): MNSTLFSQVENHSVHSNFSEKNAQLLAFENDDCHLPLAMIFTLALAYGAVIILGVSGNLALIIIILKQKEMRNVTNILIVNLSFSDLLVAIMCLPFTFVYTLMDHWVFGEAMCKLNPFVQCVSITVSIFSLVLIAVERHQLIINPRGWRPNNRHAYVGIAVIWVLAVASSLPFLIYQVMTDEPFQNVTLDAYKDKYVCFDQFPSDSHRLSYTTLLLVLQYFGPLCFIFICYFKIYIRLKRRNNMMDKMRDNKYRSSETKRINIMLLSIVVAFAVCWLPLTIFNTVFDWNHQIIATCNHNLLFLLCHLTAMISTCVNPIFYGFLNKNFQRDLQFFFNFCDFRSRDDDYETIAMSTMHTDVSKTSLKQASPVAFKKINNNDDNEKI

Human β2 = target: T15, Human β2 (Homo sapiens, UniProt P07550); design: CEREP off-target binding panel, per cent inhibition at 10 uM, n = 2
T15 construct: gene ADRB2

Human Eta = target: T16, Human Eta (Homo sapiens, UniProt P25101); design: CEREP off-target binding panel, per cent inhibition at 10 uM, n = 2
T16 construct: gene EDNRA

Human B2 = target: T17, Human B2 (Homo sapiens, UniProt P30411); design: CEREP off-target binding panel, per cent inhibition at 10 uM, n = 2
T17 construct: gene BDKRB2

[1] = target: T18, Human dopamine transporter (Homo sapiens, UniProt Q01959); design: CEREP off-target binding panel, per cent inhibition at 10 uM, n = 2
T18 construct: gene SLC6A3

CYP1A2 = CYP1A2 (Homo sapiens, UniProt P05177); design: CYP off-target inhibition panel
CYP2C8 = CYP2C8 (Homo sapiens, UniProt P10632); design: CYP off-target inhibition panel
Chain of CYP2C8 (P10632 whole entry): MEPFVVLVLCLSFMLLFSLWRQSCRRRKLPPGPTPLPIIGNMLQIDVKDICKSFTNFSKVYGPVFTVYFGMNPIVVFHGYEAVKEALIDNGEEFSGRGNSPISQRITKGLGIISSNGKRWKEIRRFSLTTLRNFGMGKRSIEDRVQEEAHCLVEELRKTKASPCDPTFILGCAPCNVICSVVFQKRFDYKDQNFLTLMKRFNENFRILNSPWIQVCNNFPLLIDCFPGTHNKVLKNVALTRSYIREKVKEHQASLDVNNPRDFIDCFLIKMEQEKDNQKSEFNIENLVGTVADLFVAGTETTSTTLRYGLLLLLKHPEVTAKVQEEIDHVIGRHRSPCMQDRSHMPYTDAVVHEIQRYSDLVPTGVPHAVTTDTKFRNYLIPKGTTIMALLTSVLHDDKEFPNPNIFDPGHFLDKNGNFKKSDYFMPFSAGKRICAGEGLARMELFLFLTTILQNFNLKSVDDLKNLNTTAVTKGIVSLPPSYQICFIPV

CYP2B6 = CYP2B6 (Homo sapiens, UniProt P20813); design: CYP off-target inhibition panel
Text: These examples have been of interest as tool compounds in commercial development (indicated by patent numbers in Figure 3). […] Initially, [compound left out] was utilized as substrate in this reaction owing to its improved solubility over cholesterol, enabling better run to run reproducibility ([Mast et al., 2003]).

CYP2C9 = CYP2C9 (Homo sapiens, UniProt P11712); design: CYP off-target inhibition panel
Chain of CYP2C9 (P11712 whole entry): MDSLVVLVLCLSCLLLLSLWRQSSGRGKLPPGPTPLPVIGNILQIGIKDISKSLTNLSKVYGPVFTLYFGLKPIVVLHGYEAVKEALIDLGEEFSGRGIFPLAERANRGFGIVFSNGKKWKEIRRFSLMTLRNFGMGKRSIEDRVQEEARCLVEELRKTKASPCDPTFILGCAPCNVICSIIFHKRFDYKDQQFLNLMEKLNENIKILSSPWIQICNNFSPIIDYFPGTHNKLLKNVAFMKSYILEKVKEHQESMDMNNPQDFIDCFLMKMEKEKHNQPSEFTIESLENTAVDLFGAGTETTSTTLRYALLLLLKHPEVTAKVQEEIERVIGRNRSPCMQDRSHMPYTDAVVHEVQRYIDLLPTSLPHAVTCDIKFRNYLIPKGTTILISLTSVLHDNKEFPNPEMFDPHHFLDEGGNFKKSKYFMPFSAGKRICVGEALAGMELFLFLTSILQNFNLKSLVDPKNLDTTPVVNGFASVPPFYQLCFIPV

CYP2C19 = CYP2C19 (Homo sapiens, UniProt P33261); design: CYP off-target inhibition panel
CCK1 = target: T19, CCK1 (Homo sapiens, UniProt P32238); design: CEREP radioligand binding panel, percent inhibition of specific binding
T19 construct: gene CCKAR

GAL2 = target: T20, GAL2 (Homo sapiens, UniProt O43603); design: CEREP radioligand binding panel, percent inhibition of specific binding
T20 construct: gene GALR2

MT1 = target: T21, MT1 (Homo sapiens, UniProt P48039); design: CEREP radioligand binding panel, percent inhibition of specific binding
T21 construct: gene MTNR1A
T21 sequence (P48039 whole entry): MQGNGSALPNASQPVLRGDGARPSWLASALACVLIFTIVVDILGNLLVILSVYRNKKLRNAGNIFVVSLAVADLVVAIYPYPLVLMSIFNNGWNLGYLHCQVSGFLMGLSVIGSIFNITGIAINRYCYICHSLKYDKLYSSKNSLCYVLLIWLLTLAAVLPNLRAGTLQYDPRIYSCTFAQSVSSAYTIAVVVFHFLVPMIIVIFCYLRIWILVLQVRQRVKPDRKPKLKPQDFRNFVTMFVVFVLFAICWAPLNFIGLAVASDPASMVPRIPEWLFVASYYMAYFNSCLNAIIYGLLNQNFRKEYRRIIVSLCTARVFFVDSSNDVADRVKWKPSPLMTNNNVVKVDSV

SMILES	inhibition at 10 µM (Human 5-HT5A)	inhibition at 10 µM (Human 5-HT6)	inhibition at 10 µM (Human 5-HT7)	inhibition at 10 µM (Human A3)	inhibition at 10 µM (Human CB1)	inhibition at 10 µM (Human D2s)	inhibition at 10 µM (Human EP4)	inhibition at 10 µM (Human GR)	inhibition at 10 µM (Human H3)	inhibition at 10 µM (Human MC4)	inhibition at 10 µM (Human PR)	inhibition at 10 µM (Human V1a)	inhibition at 10 µM (Human VPAC1)	inhibition at 10 µM (Human Y1)	inhibition at 10 µM (Human β2)	inhibition at 10 µM (Human Eta)	inhibition at 10 µM (Human B2)	inhibition at 10 µM [1]	inhibition at 10 µM (CCK1)	inhibition at 10 µM (GAL2)	also measured
O=C(c1cnc2c(-c3cnco3)cc(C(F)(F)F)cn12)N1C2CCC1COC2 [compound 1, (3-oxa-8-azabicyclo[3.2.1]octan-8-yl)(8-(oxazol-5-yl)-6-(trifluoromethyl)imidazo[1,2-a]pyridin-3-yl)methanone]	-12.5%	-0.7%	5.4%	23.3%	-34.7%	-15.2%	-22.4%	-8.6%	-3.3%	4.5%	2%	-7.4%	5.5%	-2.9%	-8.1%	-25.8%	6.9%	2.1%	7.1%	-7.2%	IC50 (CYP1A2): 6.29 µM; IC50 (CYP2C8): > 50 µM; IC50 (CYP2B6): > 50 µM; IC50 (CYP2C9): > 50 µM; IC50 (CYP2C19): > 50 µM; inhibition at 10 µM (MT1): 1.7%
O=C(c1cccnc1-c1ccncn1)N1CCC(O)(Cc2ccc(F)cc2)CC1 [compound 2, (4-(4-fluorobenzyl)-4-hydroxypiperidin-1-yl)(2-(pyrimidin-4-yl)pyridin-3-yl)methanone]	9.6%	0.9%	4.2%	5.4%	-9.2%	-15.4%	1.8%	-0.6%	-14.7%	9.8%	-4.7%	2.8%	-1.9%	-16.3%	-2%	-35.5%	8.4%	13.8%	-4.7%	0%	IC50 (CYP1A2; read-out: compound 2): > 50 µM; IC50 (CYP2C8; read-out: compound 2): > 50 µM; IC50 (CYP2B6; read-out: compound 2): > 50 µM; IC50 (CYP2C9; read-out: compound 2): > 50 µM; IC50 (CYP2C19; read-out: compound 2): > 50 µM; inhibition at 10 µM (MT1): 8.3%
